In paper PMC9837035 (Nature Communications, 2023):
“And” between values parts separate entries of the source, which are not always exact repeats. Equal entries are not always repeated.

How the values were obtained:
[1] = target: NSD2 (T1150A) (Homo sapiens, UniProt O96028, T1150A); experiment: Radioisotope-based methyltransferase assay (selectivity)
[2] = tested on: H3K27me3 in HUDEP-2 cells; experiment: Western blotting of H3K27me3; type: cell-based, human; details: peer review file
Protocol: Preparation of cell lysates and western blotting were performed as described previously. Protein from cells lysates in lysis buffer (50 mM Tris-HCl (pH 7.5), 150 mM NaCl, 5 mM EDTA, 0.1% NP-40, 1 mM dithiothreitol) were separated by sodium dodecyl sulfate–polyacrylamide gel electrophoresis (SDS-PAGE) and transferred to a polyvinylidene difluoride (PVDF) membrane (Millipore) by electroblotting. The membranes incubated with primary antibodies overnight at 4 °C and secondary antibodies for 1 h at room temperature. The immune complexes were detected with the Immobilon Western Chemiluminescent HRP Substrate (Millipore). Luminescence was analyzed on a FUSION SOLO S (Vilber). Western blot bands were visualized using Evolution Capt software (M&S Instruments Inc.). Primary antibodies used were anti-G9a (1:1000, CST, #3306), anti–α-tubulin (1:5000, Abcam, ab18251), anti-H3K9me2 (1:3000, Abcam, ab1220), anti-H3 (1:5000, Abcam, ab1791), anti-H3K27me3 (1:3000, Sigma, 07-449), anti-GLP (1:1000, CST, #35005), anti-FLAG (100 ng/ml, Fujifilm, 01422383), anti-His (1:5000, MBL, PM032), anti-BCL11A (1:1000, abcam, ab19487), anti-ZBTB7A (1:1000, CST, #50565), anti-CHD3 (1:1000, Novus Biologicals, NB100-60412), and anti-CHD4 (1:1000, abcam, ab240640). Uncropped scans of all of the blots are available in Source Data file.

[3] = Liver microsomal stability assay, dog; type: in vitro ADME; details: for Metabolic stability, % remaining of RK-701: Dog
Protocol: [Human/Rat] Liver microsome analyses (human, rat) were performed in triplicate by the Sumika Chemical Analysis Service (SCAS) according to the standard protocols. […] [Dog/Monkey] Liver microsome analyses (dog, monkey) were performed in duplicate by RIKEN according to the same protocols as SCAS.

[4] = target: PRMT1 (Homo sapiens, UniProt Q99873); experiment: Radioisotope-based methyltransferase assay (selectivity)
PRMT1, sequence (Q99873 whole entry): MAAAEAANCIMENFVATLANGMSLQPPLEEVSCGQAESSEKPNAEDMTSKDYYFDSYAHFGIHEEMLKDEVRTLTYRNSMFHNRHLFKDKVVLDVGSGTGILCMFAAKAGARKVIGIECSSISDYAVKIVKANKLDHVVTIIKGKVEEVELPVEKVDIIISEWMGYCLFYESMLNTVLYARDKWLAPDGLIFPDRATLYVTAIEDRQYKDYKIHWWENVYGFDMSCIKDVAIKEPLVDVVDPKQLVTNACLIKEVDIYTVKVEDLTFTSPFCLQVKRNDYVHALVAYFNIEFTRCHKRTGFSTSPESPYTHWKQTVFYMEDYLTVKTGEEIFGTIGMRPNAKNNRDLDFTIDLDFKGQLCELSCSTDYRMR

[5] = target: T1, PRMT4 (Homo sapiens, UniProt Q86X55); experiment: as above; type: biochemical
T1 construct: purchased Reaction Biology
T1 sequence (Q86X55 whole entry): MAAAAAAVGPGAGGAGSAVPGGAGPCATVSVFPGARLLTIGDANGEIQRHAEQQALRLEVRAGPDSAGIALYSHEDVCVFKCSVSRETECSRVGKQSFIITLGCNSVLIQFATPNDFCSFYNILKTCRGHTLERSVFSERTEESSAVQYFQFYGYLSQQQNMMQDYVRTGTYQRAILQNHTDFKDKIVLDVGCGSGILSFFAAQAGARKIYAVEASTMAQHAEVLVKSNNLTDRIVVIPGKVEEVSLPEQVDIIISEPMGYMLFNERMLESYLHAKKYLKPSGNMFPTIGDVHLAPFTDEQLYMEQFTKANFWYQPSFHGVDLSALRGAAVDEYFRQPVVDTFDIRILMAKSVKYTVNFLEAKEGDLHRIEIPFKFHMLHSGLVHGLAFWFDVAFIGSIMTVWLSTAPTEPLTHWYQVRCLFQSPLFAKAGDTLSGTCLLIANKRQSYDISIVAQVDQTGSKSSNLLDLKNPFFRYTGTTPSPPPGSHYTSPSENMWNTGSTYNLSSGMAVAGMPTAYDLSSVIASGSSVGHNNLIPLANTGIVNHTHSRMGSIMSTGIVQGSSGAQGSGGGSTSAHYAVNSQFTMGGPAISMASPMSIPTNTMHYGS

[6] = Mouse acute toxicity assay, body weight; type: in vivo, mice
Protocol: All animal studies were approved by the Institutional Committee for Animal Experiments of the Institute of Microbial Chemistry, and were performed in accordance with relevant guidelines and regulations to minimize animal suffering. Four-week-old female ICR mice were purchased from Charles River Breeding Laboratories (Yokohama, Japan) and maintained in a specific pathogen-free barrier facility. […] Samples were dissolved in saline containing 10% DMSO and 1% Tween 80 and injected intravenously into mice.

[7] = tested on: α-, β-, εy-, and βh1-globin mRNA in peripheral blood; experiment: Globin mRNA levels in peripheral blood of treated mice; type: in vivo
Protocol: Total cellular RNA was prepared using the Tissue Total RNA Mini Kit (FAVORGEN), and cDNA was synthesized using ReverTra Ace Master Mix (TOYOBO). Expression of target genes was analyzed using THUNDERBIRD SYBR qPCR Mix (TOYOBO) on a CFX Connect Real Time System (Bio-Rad). The qPCR data were acquired on CFX Maestro (Bio-Rad). Primers are listed in Supplementary Table 10. GAPDH was used as a reference. Primers were purchased from INTEGRATED DNA TECHNOLOGIES or FASMAC.
C57BL/6 mice (6–8 weeks old, female, six mice/group) were purchased from Tokyo Laboratory Animals Science. The mice were fed a standard laboratory diet and housed in a temperature-controlled room under specific pathogen-free conditions. A combination anesthetic was prepared with 0.3 mg/kg medetomidine, 4.0 mg/kg midazolam, and 5.0 mg/kg butorphanol.
The dosing solution contained 15% DMSO, 17.5% Cremophor EL, 8.75% EtOH, 8.75% HCO-40, and 50% PBS. Blood samples were collected once a week by Retro Orbital Sampling (75 μL Calibrated Micropipette; Drummond Scientific Company) during isoflurane anesthesia. Blood RNA was extracted using NucleoSpin RNA Blood (Takara Bio Inc.). The weight of each mouse was measured every 3 or 4 days.

[8] = target: NSD2 (Homo sapiens, UniProt O96028)
NSD2, sequence (O96028 whole entry): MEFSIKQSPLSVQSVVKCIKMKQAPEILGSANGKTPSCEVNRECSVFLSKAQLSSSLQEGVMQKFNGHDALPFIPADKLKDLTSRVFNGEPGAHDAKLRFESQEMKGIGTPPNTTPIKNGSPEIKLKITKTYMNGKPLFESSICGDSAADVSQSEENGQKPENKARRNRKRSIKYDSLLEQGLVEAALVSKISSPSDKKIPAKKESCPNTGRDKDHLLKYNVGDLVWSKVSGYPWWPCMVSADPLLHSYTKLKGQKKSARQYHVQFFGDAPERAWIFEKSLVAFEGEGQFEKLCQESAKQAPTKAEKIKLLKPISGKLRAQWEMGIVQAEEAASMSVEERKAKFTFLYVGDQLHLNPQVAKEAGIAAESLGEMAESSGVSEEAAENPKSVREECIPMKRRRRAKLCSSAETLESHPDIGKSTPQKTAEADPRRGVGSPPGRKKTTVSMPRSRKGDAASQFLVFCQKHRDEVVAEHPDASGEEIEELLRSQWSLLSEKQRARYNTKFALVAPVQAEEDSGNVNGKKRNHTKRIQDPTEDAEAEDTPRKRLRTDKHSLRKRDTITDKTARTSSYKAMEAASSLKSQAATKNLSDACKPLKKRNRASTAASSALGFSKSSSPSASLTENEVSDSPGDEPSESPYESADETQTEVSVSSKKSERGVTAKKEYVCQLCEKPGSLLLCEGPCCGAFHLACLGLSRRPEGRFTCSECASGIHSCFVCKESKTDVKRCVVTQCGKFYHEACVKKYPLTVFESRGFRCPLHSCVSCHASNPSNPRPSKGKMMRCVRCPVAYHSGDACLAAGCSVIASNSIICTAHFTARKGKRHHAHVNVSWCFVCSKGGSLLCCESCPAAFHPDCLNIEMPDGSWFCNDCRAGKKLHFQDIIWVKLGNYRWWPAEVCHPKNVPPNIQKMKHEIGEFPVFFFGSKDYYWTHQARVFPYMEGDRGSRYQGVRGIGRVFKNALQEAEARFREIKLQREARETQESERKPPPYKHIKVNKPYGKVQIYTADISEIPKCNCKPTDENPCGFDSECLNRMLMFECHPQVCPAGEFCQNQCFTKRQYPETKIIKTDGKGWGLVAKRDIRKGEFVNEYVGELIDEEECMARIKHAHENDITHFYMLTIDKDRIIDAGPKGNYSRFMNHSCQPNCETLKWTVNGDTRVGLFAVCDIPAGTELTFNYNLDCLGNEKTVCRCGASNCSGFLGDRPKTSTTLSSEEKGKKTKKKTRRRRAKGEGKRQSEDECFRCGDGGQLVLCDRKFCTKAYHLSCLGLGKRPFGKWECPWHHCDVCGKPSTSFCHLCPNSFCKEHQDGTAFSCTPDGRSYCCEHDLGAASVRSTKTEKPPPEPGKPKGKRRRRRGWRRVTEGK

[9] = target: EZH2 (Homo sapiens, UniProt Q15910); experiment: biochemical
[10] = target: DNMT1 (Homo sapiens, UniProt P26358); experiment: biochemical
DNMT1, sequence (P26358 whole entry): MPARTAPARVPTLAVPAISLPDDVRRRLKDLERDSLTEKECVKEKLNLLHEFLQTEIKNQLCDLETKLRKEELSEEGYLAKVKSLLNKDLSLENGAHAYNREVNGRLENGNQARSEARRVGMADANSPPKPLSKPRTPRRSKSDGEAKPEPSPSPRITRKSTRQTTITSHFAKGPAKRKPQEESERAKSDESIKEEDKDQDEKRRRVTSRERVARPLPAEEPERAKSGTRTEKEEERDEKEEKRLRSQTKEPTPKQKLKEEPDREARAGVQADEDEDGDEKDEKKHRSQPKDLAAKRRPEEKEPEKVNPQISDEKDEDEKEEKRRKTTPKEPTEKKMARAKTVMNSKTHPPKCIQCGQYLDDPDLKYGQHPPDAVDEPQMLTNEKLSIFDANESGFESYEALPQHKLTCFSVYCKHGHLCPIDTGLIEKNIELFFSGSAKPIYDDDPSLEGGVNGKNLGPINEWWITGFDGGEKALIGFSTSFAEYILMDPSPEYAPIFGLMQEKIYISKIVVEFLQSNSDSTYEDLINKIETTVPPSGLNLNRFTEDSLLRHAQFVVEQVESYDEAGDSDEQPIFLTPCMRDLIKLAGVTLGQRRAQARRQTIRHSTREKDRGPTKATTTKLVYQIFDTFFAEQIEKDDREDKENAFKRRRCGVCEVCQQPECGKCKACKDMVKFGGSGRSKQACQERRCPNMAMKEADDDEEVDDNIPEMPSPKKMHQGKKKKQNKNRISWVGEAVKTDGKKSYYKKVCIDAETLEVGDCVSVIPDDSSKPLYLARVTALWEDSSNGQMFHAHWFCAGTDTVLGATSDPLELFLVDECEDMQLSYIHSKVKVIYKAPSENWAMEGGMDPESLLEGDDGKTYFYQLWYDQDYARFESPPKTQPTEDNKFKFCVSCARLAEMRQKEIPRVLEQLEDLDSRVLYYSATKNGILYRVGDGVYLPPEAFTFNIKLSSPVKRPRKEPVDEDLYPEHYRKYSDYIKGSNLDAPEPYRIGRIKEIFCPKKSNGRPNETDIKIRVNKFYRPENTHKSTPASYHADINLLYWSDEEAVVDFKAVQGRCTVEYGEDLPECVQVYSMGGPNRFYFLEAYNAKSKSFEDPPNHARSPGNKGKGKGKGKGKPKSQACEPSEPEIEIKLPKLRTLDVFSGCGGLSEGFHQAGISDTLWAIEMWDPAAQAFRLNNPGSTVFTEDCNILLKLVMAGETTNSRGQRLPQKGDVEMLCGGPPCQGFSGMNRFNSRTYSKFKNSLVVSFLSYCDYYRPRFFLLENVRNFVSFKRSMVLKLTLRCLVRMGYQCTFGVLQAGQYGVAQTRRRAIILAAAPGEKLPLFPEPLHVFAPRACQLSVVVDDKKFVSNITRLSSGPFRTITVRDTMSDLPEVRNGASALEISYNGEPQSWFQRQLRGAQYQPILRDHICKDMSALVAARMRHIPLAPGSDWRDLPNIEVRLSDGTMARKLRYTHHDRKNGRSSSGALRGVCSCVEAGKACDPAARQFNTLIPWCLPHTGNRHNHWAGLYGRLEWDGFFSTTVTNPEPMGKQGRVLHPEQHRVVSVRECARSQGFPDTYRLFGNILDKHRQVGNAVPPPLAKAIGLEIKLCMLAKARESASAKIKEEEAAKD

[11] = target: T2, SUV39H1 (Homo sapiens, UniProt O43463); experiment: Radioisotope-based methyltransferase assay (selectivity); type: biochemical
T2 construct: purchased Reaction Biology
T2 sequence (O43463 whole entry): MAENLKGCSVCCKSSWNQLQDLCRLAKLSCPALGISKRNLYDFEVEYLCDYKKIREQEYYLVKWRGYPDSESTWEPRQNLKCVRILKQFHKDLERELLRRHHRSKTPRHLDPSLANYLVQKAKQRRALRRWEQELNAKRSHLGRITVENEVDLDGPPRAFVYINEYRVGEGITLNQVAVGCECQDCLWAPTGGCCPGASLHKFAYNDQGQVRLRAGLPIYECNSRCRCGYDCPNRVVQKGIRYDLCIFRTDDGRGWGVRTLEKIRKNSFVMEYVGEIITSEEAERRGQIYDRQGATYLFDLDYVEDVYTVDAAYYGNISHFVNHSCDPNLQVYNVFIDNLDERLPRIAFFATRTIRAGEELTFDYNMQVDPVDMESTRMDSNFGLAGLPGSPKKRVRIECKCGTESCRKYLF

NSD2 (T1150A), sequence (O96028 whole entry T1150A): as the sequence (O96028 whole entry) above, with T1150A counted along it

With `Cc1c(C(=O)NC(CCC2CC2)C(=O)Nc2ccc(C#N)cc2)[nH]c2c1C(=O)CC(C)(C)C2` (stereo not shown) [RK-701] the IC50 [1] was greater than 100 µM, the H3K27me3 ([2]; 0.1 µM) was “no effect on H3K27me3” and the H3K27me3 [2] was “slightly decrease H3K27me3 only at high”. For the same molecule, the “Metabolic stability, % remaining of RK-701” value ([3]; Time 5, replicate values) was 67.6%, the “Metabolic stability, % remaining of RK-701” value ([3]; Time 10, replicate values) was 70.7% and 62.6% and the “Metabolic stability, % remaining of RK-701” value ([3]; Time 20, replicate values) was 60.6% and 44.6%. For the same molecule, the “Metabolic stability, % remaining of RK-701” value ([3]; Time 30, replicate values) was 51.3% and 40.3%, the “Metabolic stability, % remaining of RK-701” value ([3]; Time 45, replicate values) was 47% and 30% and the “Metabolic stability, % remaining of RK-701” value ([3]; Time 60, replicate values) was 37.6% and 29.4%. For the same molecule, the remaining at 5 min, 1 µM ([3]; dog, liver microsomes, Metabolic stability, % remaining of RK-701, Dog, Time 5, replicate values) was 72.6%, the remaining at 10 min, 1 µM ([3]; dog, liver microsomes, Metabolic stability, % remaining of RK-701, Dog, Time 10, replicate values) was 57% and the remaining at 20 min, 1 µM ([3]; dog, liver microsomes, Metabolic stability, % remaining of RK-701, Dog, Time 20, replicate values) was 53.4%. The remaining at 30 min, 1 µM ([3]; dog, liver microsomes, Metabolic stability, % remaining of RK-701, Dog, Time 30, replicate values) was 48.4%, the remaining at 45 min, 1 µM ([3]; dog, liver microsomes, Metabolic stability, % remaining of RK-701, Dog, Time 45, replicate values) was 37.1% and the remaining at 60 min, 1 µM ([3]; dog, liver microsomes, Metabolic stability, % remaining of RK-701, Dog, Time 60, replicate values) was 30.9%. For the same molecule, the microsomal CLint at 1 μM ([3]; dog, liver microsomes, Dug, read-out: Metabolic stability in liver microsomes CLint) was 28 µL/min/mg, the IC50 [4] was greater than 100 µM and the IC50 ([5]; PRMT4, 1 μM SAM) was greater than 100 µM. The IC50 ([5]; PRMT4, RK-701 in duplicate) was greater than 100 µM, the “The body weight of individual mice” value ([6]; 12.5 mg/kg, Day0) was 24.94 g and the “The body weight of individual mice” value ([6]; 12.5 mg/kg, Day1) was 24.39 g. For the same molecule, the “The body weight of individual mice” value ([6]; 12.5 mg/kg, Day3) was 26.32 g and 24.79 g, the “The body weight of individual mice” value ([6]; 12.5 mg/kg, Day5) was 26.12 g and 25.27 g and 26.24 g and the “The body weight of individual mice” value ([6]; 12.5 mg/kg, Day7) was 26.84 g and 25.44 g and 25.63 g. For the same molecule, the “The body weight of individual mice” value ([6]; 12.5 mg/kg, Day9) was 26.98 g and 26.32 g and 26.65 g, the “The body weight of individual mice” value ([6]; 12.5 mg/kg, Day11) was 27.95 g and 26.07 g and 25.28 g and the “The body weight of individual mice” value ([6]; 12.5 mg/kg, Day14) was 27.71 g and 26.81 g and 27.50 g. For the same molecule, the “The body weight of individual mice” value ([6]; 25 mg/kg, Day0) was 23.49 g and 24.32 g and 24.36 g, the “The body weight of individual mice” value ([6]; 25 mg/kg, Day1) was 23.24 g and 25.05 g and 21.93 g and the “The body weight of individual mice” value ([6]; 25 mg/kg, Day2) was 24.39 g and 26.13 g and 23.16 g. The “The body weight of individual mice” value ([6]; 25 mg/kg, Day3) was 24.09 g and 26.66 g and 23.50 g, the “The body weight of individual mice” value ([6]; 25 mg/kg, Day4) was 24.79 g and 27.09 g and 24.50 g and the “The body weight of individual mice” value ([6]; 25 mg/kg, Day5) was 25.11 g and 26.53 g and 25.43 g. The “The body weight of individual mice” value ([6]; 25 mg/kg, Day7) was 25.92 g and 26.25 g and 25.57 g, the “The body weight of individual mice” value ([6]; 25 mg/kg, Day9) was 25.69 g and 26.57 g and 26.31 g and the “The body weight of individual mice” value ([6]; 25 mg/kg, Day11) was 26.68 g and 27.09 g and 27.51 g. The “The body weight of individual mice” value ([6]; 25 mg/kg, Day14) was 26.24 g and 26.26 g and 28.11 g, the “The body weight of individual mice” value ([6]; 50 mg/kg, Day0) was 22.18 g and 23.36 g and 23.10 g and the “The body weight of individual mice” value ([6]; 50 mg/kg, Day1) was 22.71 g and 22.55 g and 24.93 g. For the same molecule, the “The body weight of individual mice” value ([6]; 50 mg/kg, Day2) was 23.39 g and 22.67 g and 25.00 g, the “The body weight of individual mice” value ([6]; 50 mg/kg, Day3) was 24.41 g and 22.89 g and 25.00 g and the “The body weight of individual mice” value ([6]; 50 mg/kg, Day4) was 24.33 g and 23.75 g and 26.48 g. The “The body weight of individual mice” value ([6]; 50 mg/kg, Day5) was 24.37 g and 24.57 g and 26.83 g, the “The body weight of individual mice” value ([6]; 50 mg/kg, Day7) was 25.33 g and 23.96 g and 27.23 g and the “The body weight of individual mice” value ([6]; 50 mg/kg, Day9) was 25.95 g and 24.94 g and 26.92 g. The “The body weight of individual mice” value ([6]; 50 mg/kg, Day11) was 26.83 g and 25.42 g and 28.13 g, the “The body weight of individual mice” value ([6]; 50 mg/kg, Day14) was 27.45 g and 26.37 g and 28.85 g and the “The body weight of individual mice” value ([6]; 100 mg/kg, Day0) was 22.92 g and 23.08 g and 22.86 g. For the same molecule, the “The body weight of individual mice” value ([6]; 100 mg/kg, Day1) was 21.12 g and 23.93 g and 21.40 g, the “The body weight of individual mice” value ([6]; 100 mg/kg, Day2) was 22.69 g and 24.09 g and 22.95 g and the “The body weight of individual mice” value ([6]; 100 mg/kg, Day3) was 23.07 g. The “acute toxicity, body weight” value ([6]; mouse, in vivo, iv) was “no significant body weight loss”, the “mouse embryonic εy-globin” value [7] was “selectively increased” and the IC50 [8] was greater than 100 µM. For the same molecule, the IC50 [9] was greater than 100 µM, the IC50 [10] was greater than 100 µM and the IC50 ([11]; SUV39H1, 1 μM SAM) was greater than 100 µM. The IC50 ([11]; SUV39H1, RK-701 in duplicate) was greater than 100 µM.
